The values below come from paper PMC5004205, “Spiro[pyrrolidine-3, 3´-oxindole] as potent anti-breast cancer compounds: Their design, synthesis, biological evaluation and cellular target identification” (Scientific Reports, 2016).

In series [1] the test system is MCF-7 cells. The settings on record: cited from earlier work.
Series [2] has as its system MCF-7 breast cancer cells. The experiment in a line: MTT colorimetric cell viability assay, MCF-7. Format: cell-based. To be noted: for inhibition at 50 µM / EC50: Homo sapiens; for inhibition at 50 µM: MCF7, 48 hours, MTT, triplicates, read-out: Percentage inhibition MCF-7; for CTRL-TST/CTRL*100 (inhibition) MCF-7: EC50 plate; for EC50: MCF7, MTT, mean of three experiments. How it is done:
MCF-7 cells were maintained as monolayer in 25 cm^2 culture flasks (T-25) at 37 °C in DMEM medium (GIBCO, St. Louis, USA) supplemented with high glucose, L-glutamine, pyridoxine hydrochloride, 110 mg/L sodium pyruvate, 3.7 g/L NaHCO3 and antibiotics (Penicillin-10,000 units/mL, Streptomycin −10,000 μg/mL, GIBCO, USA). Growth medium (pH 7.4) was prepared by adding 5% heat inactivated FBS (Fetal Bovine Serum, GIBCO, USA) and stored at 4 °C. The medium was changed 10–18 hrs prior to experiment, and cells were confluent at the time of experimentation. Cells were dislodged from flasks by gentle trypsinization containing 0.25% Trypsin. MCF-7 cells were regularly sub-cultured thrice a week in a seeding density of 40,000–50,000 cells/cm^2area. Cell confluency = 70%
The MTT colorimetric viability assay was performed to evaluate the anticancer effect of compounds. 30,000 cells/100 μl of media were seeded per well and allowed to stretch and adhere overnight at 37 °C. Following day media was removed and 100 μl fresh media was added to the grown cells. […] There was one positive and one negative control along with 13 compounds. The results were measured all in triplicate in 45 wells of 96 well plate at each time point. Cytotoxic effect was evaluated using ability of live cells to cleave MTT ((3-[4, 5- dimethylthiazol-2-yl]-2, 5-diphenyl tetrazolium bromide)) (Sigma-Aldrich, St Louis, MO, USA), into formazan crystals. Post 48 hours of treatment, 10 μl of MTT (5 mg/ml in PBS) was added to the cells and incubated for 4 hours in dark at 37 °C. The violet colored crystals formed were then dissolved in 100 μl DMSO solvent (Dimethyl Sulfoxide, Sigma-Aldrich, St. Louis, MO, USA). The colorimetric assay was read by a MultiMode Plate Reader (Bio-Rad) at 595 nm. Percentage of Inhibition of drug was calculated by following formula:
O.D1 O.D2 O.D3 AVG CTRL-TST CTRL-TST/CTRL*100 stdev

The subject of series [3] is COS-7 cells. Nature of the series: MTT colorimetric cell viability assay, COS-7. Format: cell-based. The settings on record: for inhibition at 50 µM: Chlorocebus aethiops, COS-7, MTT, triplicates, read-out: Percentage inhibition COS-7. The procedure:
(§1) The MTT colorimetric viability assay was performed to evaluate the anticancer effect of compounds. 30,000 cells/100 μl of media were seeded per well and allowed to stretch and adhere overnight at 37 °C. Following day media was removed and 100 μl fresh media was added to the grown cells. Adhered cells were then treated with the compounds 5a-m dissolved in DMSO in triplicates at a standard concentration of 50 μM for 48 hours. There was one positive and one negative control along with 13 compounds. The results were measured all in triplicate in 45 wells of 96 well plate at each time point. Cytotoxic effect was evaluated using ability of live cells to cleave MTT ((3-[4, 5- dimethylthiazol-2-yl]-2, 5-diphenyl tetrazolium bromide)) (Sigma-Aldrich, St Louis, MO, USA), into formazan crystals. Post 48 hours of treatment, 10 μl of MTT (5 mg/ml in PBS) was added to the cells and incubated for 4 hours in dark at 37 °C. The violet colored crystals formed were then dissolved in 100 μl DMSO solvent (Dimethyl Sulfoxide, Sigma-Aldrich, St. Louis, MO, USA). The colorimetric assay was read by a MultiMode Plate Reader (Bio-Rad) at 595 nm. Percentage of Inhibition of drug was calculated by following formula: […]

The test system of series [4] is MCF10A cells. Nature of the series: MTT cytotoxicity assay, MCF10A. It is filed as cell-based. The settings on record: for CTRL-TST/CTRL*100 MCF10A cytotoxicity / Percentage inhibition MCF10A: 48 hours; for CTRL-TST/CTRL*100 MCF10A cytotoxicity: 595 nm; for Percentage inhibition MCF10A: MTT. How it is done: MCF10A was obtained from American Tissue Type Culture Collection (ATCC, Bethesda, MD). All cells were grown in a humidified atmosphere at 37 °C, with 5% CO2 in air.
as §1
Cytotoxicity assay with MCF 10A
Experiment :MCF10A cytotoxicity assay 48 hours
Raw Data{Wavelength:595.0}
O.D1 O.D2 O.D3 AVG CTRL-TEST CTRL-TST/CTRL*100
(1 picture or pasted object on this page, not shown here)
A general note: Tetrazolium assays rely on reduction of a dye to a coloured formazan, in cell work by metabolically active cells.

The subject of series [5] is MCF-7 cells. The experiment in a line: Annexin V/propidium iodide FACS assay. It is filed as cell-based. How it is done: The assay is based on the ability of the protein annexin V to bind to phosphatidylserine (PS) exposed on the outer membrane leaflet in apoptotic cells (PS also appears on the necrotic cell surface). The annexin V assay was performed following the manufacturer’s instructions (Annexin V-FITC kit,Alexa Fluor). Briefly, the cells were washed with PBS and suspended in pre-diluted binding buffer. The cell density was adjusted to 2 million and 195 μl of cell suspension were mixed with 5 μl Annexin V-FITC and incubated for 10 min in the dark at room temperature. The cells were washed with binding buffer, re-suspended in 195 μl binding buffer, counterstained with 10 μl of the 20 μg/ml propidium iodide stock (final concentration 1 μg/ml) and the data were acquired by BD FACS diva 7.0 at 6 h, 12 h and 24 h.
On the technique in general: Flow cytometry measures light scatter and fluorescence of single cells or particles in a stream.

Series [6] concerns MCF-7 cells. The experiment in a line: DNA fragmentation (DNA-ladder) assay. Format: cell-based. To be noted: MCF-7, gel electrophoresis. The procedure:
The DMSO (dimethyl sulphoxide)–SDS (sodium dodecyl sulphate)–TE (Tris-EDTA) method: 2 million MCF-7cells were taken as starting material for DNA isolation. Cells were dislodged with Trypsin-EDTA and washed with 1 X PBS. DMSO was added directly to the cell pellet (100 μl) and mixed well by pipetting. TE buffer (pH 7.4) with 2% SDS was added into the mixture with same volume, followed by pipetting. The solution was centrifuged at 3000 rpm at 4 °C and 30 μL of the supernatant was loaded on agarose gel to check the effect of drugs on DNA molecule.

The test system of series [7] is MCF-7 cells. The experiment in a line: Cell migration (scratch) assay. To be noted: 24 hours, compared to untreated cells. Format: cell-based. The procedure: MCF-7 cells were grown to confluence in six-well tissue culture plastic dishes to a density of ∼0.2 million cells/well. After 24 hrs of seeding, cells were treated with chemical compounds. The medium was removed and the cells were scratched by 200 μL pipette micro tip through the center of the plate. The cultures were washed to remove debris and re-cultured with DMEM containing 10% FBS for cell migration. The cells were imaged at 24 hrs and the migrated distance was measured. Migration rate was calculated by counting five to seven fields per image and the results presented as the average of three independent experiments performed over multiple days.

Series [8] relates to PKCα kinase. The arrangement: method as in Shantani UPT Application Notes. The settings on record: at 1μM; ref Shantani UPT Application Notes; cited from earlier work.

In brackets after ≈: the same amount, converted by molar mass. Several values for one entry are separate records, joined by “and”; a condition that tells them apart may be missing. Identical values can stand only once. Entries after “also recorded” stand apart in the source; their conditions may differ.

Take `CS[C@@]1(C)C(=O)N(C)[C@@](Cc2c[nH]c3ccccc23)(SC)C(=O)N1C` [Chaetocochins G]: in series [1], the “IC50 in MCF-7” value is 16.9 µg/mL (≈ 44.8 µM) and the “Mode of cell death” value was “Induces Apoptosis”.

In the case of `Cc1ccc(C2NCCC23C(=O)Nc2ccccc23)cc1` (centres unmarked) [Compound 5a], the inhibition at 50 µM in series [2] worked out at 35.06 ± 0.09%; in series [3], 11.73 ± 0.09%.

As to `O=C1Nc2ccccc2C12CCNC2c1cccc(C(F)(F)F)c1` (centres unmarked) [Compound 5b], the inhibition at 50 µM was 33.1 ± 0.12% in series [2] and 20.73 ± 0.11% in series [3].

In the case of `Cc1cc(C)cc(C2NCCC23C(=O)Nc2ccccc23)c1` (centres unmarked) [Compound 5c], the inhibition at 50 µM came to 34.46 ± 0.11% in series [2] and 28.8 ± 0.13% in series [3].

`O=C1Nc2ccccc2C12CCNC2c1c(F)cccc1F` (centres unmarked) [Compound 5d]: the inhibition at 50 µM in series [2] was determined as 44.25 ± 0.17%; in series [3], 9.22 ± 0.12%.

In the case of `O=C1Nc2ccccc2C12CCNC2c1cccc(F)c1` (centres unmarked) [Compound 5e], the “CTRL-TST/CTRL*100 (inhibition) MCF-7” value is recorded as -4.013 in series [2] (concentration row 10); 8.388 in series [2] (concentration row 20); 23.78 in series [2] (concentration row 30); 31.55 in series [2] (concentration row 40); 52.5 in series [2] (concentration row 50). For the same compound, the EC50 in series [2] was determined as 6 µM. For the same compound, the inhibition at 50 µM in series [2] came out at 54.67 ± 0.08%; in series [3], 3.56 ± 0.19%. The “Inhibition of proliferation of healthy COS-7 cells” value in series [3] is “did not inhibit the proliferation”. The “Effect on proliferation of healthy MCF10A cells” value in series [4] is “did not inhibit the proliferation; also recorded: little or no effect”. Besides, the “CTRL-TST/CTRL*100 MCF10A cytotoxicity” value in series [4] is recorded as 4.48. Besides, the “Percentage inhibition MCF10A” value in series [4] amounted to 4.48%.

Take `COc1cccc(C2NCCC23C(=O)Nc2ccccc23)c1` (centres unmarked) [Compound 5f]: the inhibition at 50 µM came out at 38.48 ± 0.18% in series [2] and 34.87 ± 0.17% in series [3].

In the case of `COc1ccc(C2NCCC23C(=O)Nc2ccccc23)cc1OC` (centres unmarked) [Compound 5g], the values for the inhibition at 50 µM in series [2] and in series [3] were 25.29 ± 0.24% and 2.39 ± 0.23%, respectively.

In the case of `COc1ccc(C2NCCC23C(=O)Nc2ccccc23)cc1` (centres unmarked) [Compound 5h], the inhibition at 50 µM in series [2] came out at 50.62 ± 0.24%; in series [3] it was 25.2 ± 0.06%.

On to `COc1cc(OC)c(C2NCCC23C(=O)Nc2ccccc23)cc1OC` (centres unmarked) [Compound 5i], for which the “CTRL-TST/CTRL*100 (inhibition) MCF-7” value in series [2] (concentration row 10) stood at 7.139; in series [2] (concentration row 20), 20.22; in series [2] (concentration row 30) it was 43.4; in series [2] (concentration row 40), 50.54; in series [2] (concentration row 50), 66.16. The compound also showed an EC50 in series [2] of 4.01 µM. For the same compound, the results for the inhibition at 50 µM in series [2] and in series [3] were 53.66 ± 0.06% and 15.6 ± 0.09%, respectively. Further, the “Mode of cell death by Annexin-PI FACS” value in series [5] is reported as “necrosis was also confirmed”. The “Inhibition of proliferation of healthy COS-7 cells” value in series [3] is given as “did not inhibit the proliferation”. For the same compound, the “DNA fragmentation pattern / mode of cell death” value in series [6] is recorded as “smearing of DNA fragments”. The “Inhibition of cell migration of MCF-7 cells” value in series [7] is “inhibit cell migration”. The “Effect on proliferation of healthy MCF10A cells” value in series [4] was “did not inhibit the proliferation; also recorded: little or no effect”. Moreover, the “CTRL-TST/CTRL*100 MCF10A cytotoxicity” value in series [4] amounted to 0.8. Further, in series [4], the “Percentage inhibition MCF10A” value was found to be 0.8%.

`COc1ccc(C2NCCC23C(=O)Nc2ccccc23)c(F)c1` (centres unmarked) [Compound 5j]: the inhibition at 50 µM in series [2] was 38.72 ± 0.15%; in series [3], 7.52 ± 0.15%.

With `COc1ccc(C2NCCC23C(=O)Nc2ccccc23)cc1C` (centres unmarked) [Compound 5k], the inhibition at 50 µM was found to be 44.4 ± 0.09% in series [2] and 7.14 ± 0.19% in series [3].

Regarding `O=C1Nc2ccccc2C12CCNC2c1cc(C(F)(F)F)ccc1C(F)(F)F` (centres unmarked) [Compound 5m], the inhibition at 50 µM in series [2] is 31.81 ± 0.11%; in series [3], -0.51 ± 0.29%.

Consider `COc1cc([C@@H]2c3cc4c(cc3[C@@H](O[C@@H]3O[C@@H]5CO[C@@H](C)O[C@H]5[C@H](O)[C@H]3O)[C@H]3COC(=O)[C@H]23)OCO4)cc(OC)c1O` [Etoposide, reference compound], for which the results for the inhibition at 50 µM in series [2] and in series [3] were 71.95 ± 0.11% and 77.65 ± 0.1%, respectively. Moreover, in series [2] (eto control row of the EC50 plates of 5l, 5e, 5i, concentration not given, listed as eto), the “CTRL-TST/CTRL*100 (inhibition) MCF-7, positive control” value is 70.96 and 73.49 and 73.1582.

Regarding Bisindolylmaleimide-III [Bis-III], the “Inhibition of PKCα kinase activity” value in series [8] was 93%.

By inhibition is commonly meant the change of the read-out against control, counted positive when it falls. Broadly, the EC50 is the midpoint of the concentration-response curve.
